Marks after values point to notes of the source that are not given here.
Assay: Measurement of LogP values by HPLC on reversed phase columns (EEC directive 79/831 Annex V.A8)
Type: physicochemical
Outline: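 LogP measured by reversed-phase HPLC following EEC directive 79/831 Annex V.A8. Lambda-max taken from UV spectra at 200–400 nm at chromatographic peak maxima; diastereoisomer values listed separately.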

Row | LogP | SMILES
1 | 2.26[a] | COc1ccc(CNc2nsc(C(=O)NCc3cnccn3)c2Cl)cc1 [I-1231]
2 | 4.44[a] | COc1ccc(CNc2nsc(C(=O)NC(C)(C)c3cccc(C(F)(F)F)c3)c2Cl)cc1 [I-1232]
3 | 4.13[a] | COc1ccc(CNc2nsc(C(=O)NCc3cccc(OC(F)(F)F)c3)c2Cl)cc1 [I-1233]
4 | 3.68[a] | COc1ccc(CNc2nsc(C(=O)NC(C)c3cccc(OC)c3)c2Cl)cc1 (stereo not shown) [I-1234]
5 | 3.13[a] | COc1ccc(CNc2nsc(C(=O)NCc3cccnc3OC)c2Cl)cc1 [I-1235]
6 | 3.06[a] | COc1ccc(CNc2nsc(C(=O)NCC3(C)CCCO3)c2Cl)cc1 (stereo not shown) [I-1236]
7 | 2.59[a] | CCn1ncc(CNC(=O)c2snc(NCc3ccc(OC)cc3)c2Cl)c1C [I-1237]
8 | 2.39[a] | COc1ccc(CNc2nsc(C(=O)NCc3ccn(C)n3)c2Cl)cc1 [I-1238]
9 | 3.55[a] | COc1ccc(CNc2nsc(C(=O)NC(C)Cc3ccco3)c2Cl)cc1 (stereo not shown) [I-1239]
10 | 3.68[a] | COc1ccc(CNc2nsc(C(=O)NCc3ccc(OC)c(Cl)c3)c2Cl)cc1 [I-1240]
11 | 3.31[a] | COc1ccc(CNc2nsc(C(=O)NCc3cccs3)c2Cl)cc1 [I-1241]
12 | 4.15[a] | COc1ccc(CNc2nsc(C(=O)NCc3ccc(OC(F)(F)F)cc3)c2Cl)cc1 [I-1242]
13 | 4.20[a] | COc1ccc(CNc2nsc(C(=O)NCc3cccc(Cl)c3C)c2Cl)cc1 [I-1243]
14 | 1.36[a] | COc1ccc(CNc2nsc(C(=O)NCCCn3ccnc3)c2Cl)cc1 [I-1244]
15 | 4.27[a] | COc1ccc(CNc2nsc(C(=O)NC3CCCCCC3)c2Cl)cc1 [I-1245]
16 | 4.37[a] | COc1ccc(CNc2nsc(C(=O)NCc3cc(C(F)(F)F)ccc3Cl)c2Cl)cc1 [I-1246]
17 | 4.08[a] | CCOc1ccccc1CNC(=O)c1snc(NCc2ccc(OC)cc2)c1Cl [I-1247]
18 | 3.90[a] | COc1ccc(CNc2nsc(C(=O)NC3Cc4ccccc4C3)c2Cl)cc1 [I-1248]
19 | 4.34[a] | COc1ccc(CNc2nsc(C(=O)NCc3ccc(Cl)c(C(F)(F)F)c3)c2Cl)cc1 [I-1249]
20 | 3.90[a] | COc1ccc(CNc2nsc(C(=O)NC(C)C3(Cl)CC3)c2Cl)cc1 (stereo not shown) [I-1250]
21 | 2.73[a] | COc1ccc(CNc2nsc(C(=O)NC(c3cncnc3)C(C)C)c2Cl)cc1 (stereo not shown) [I-1251]
22 | 5.51[a] | COc1ccc(CNc2nsc(C(=O)NC3CCC(C(C)(C)C)CC3)c2Cl)cc1 (stereo not shown) [I-1252]
23 | 1.63[a] | COc1ccc(CNc2nsc(C(=O)NC(C)c3cccnc3)c2Cl)cc1 (stereo not shown) [I-1253]

Row | LogP | SMILES
24 | 5.72[a] | CCC1(C)CC(NC(=O)c2snc(NCc3ccc(OC)cc3)c2Cl)CC(C)(C)C1 (stereo not shown) [I-1254]
25 | 1.52[a] | COc1ccc(CNc2nsc(C(=O)NCCc3ccccn3)c2Cl)cc1 [I-1255]
26 | 4.61[a] | COc1ccc(CNc2nsc(C(=O)NC(C)c3ccc(Cl)cc3Cl)c2Cl)cc1 (stereo not shown) [I-1256]
27 | 2.82[a] | COc1ccc(CNc2nsc(C(=O)NCc3cn(C(C)C)nc3C)c2Cl)cc1 [I-1257]
28 | 2.84[a] | COc1ccc(CNc2nsc(C(=O)NCc3cnn(CC(F)(F)F)c3)c2Cl)cc1 [I-1258]
29 | 3.57[a] | CCCCCn1cc(CNC(=O)c2snc(NCc3ccc(OC)cc3)c2Cl)c(C)n1 [I-1259]
30 | 3.21[a] | CCCCn1cc(CNC(=O)c2snc(NCc3ccc(OC)cc3)c2Cl)c(C)n1 [I-1260]
31 | 3.61[a] | COc1ccc(CNc2nsc(C(=O)NC(C)c3ccsc3)c2Cl)cc1 (stereo not shown) [I-1261]
32 | 3.21[a] | COc1ccc(CNc2nsc(C(=O)NCc3cnn(CC(C)C)c3C)c2Cl)cc1 [I-1262]
33 | 1.44[a] | COc1ccc(CNc2nsc(C(=O)NCCCn3ccnc3C)c2Cl)cc1 [I-1263]
34 | 4.15[a] | COc1ccc(CNc2nsc(C(=O)NCc3cc(F)cc(C(F)(F)F)c3)c2Cl)cc1 [I-1264]
35 | 4.03[a] | CCC(NC(=O)c1snc(NCc2ccc(OC)cc2)c1Cl)c1ccccc1 (stereo not shown) [I-1265]
36 | 4.44[a] | COc1ccc(CNc2nsc(C(=O)NCCC3=CCCCC3)c2Cl)cc1 [I-1266]
37 | 3.63[a] | COc1ccc(CNc2nsc(C(=O)NC(C)(C)c3nc(C)cs3)c2Cl)cc1 [I-1267]
38 | 4.11[a] | COc1ccc(CNc2nsc(C(=O)NCc3cccc4ccccc34)c2Cl)cc1 [I-1268]
39 | 3.55[a] | COc1ccc(CNc2nsc(C(=O)NCCc3cccs3)c2Cl)cc1 [I-1269]
40 | 2.47[a] | COc1ccc(CNc2nsc(C(=O)NCc3noc(C)n3)c2Cl)cc1 [I-1270]
41 | 2.70[a] | COc1ccc(CNc2nsc(C(=O)NCc3ncccc3OC)c2Cl)cc1 [I-1271]
42 | 4.06[a] | COc1ccc(CNc2nsc(C(=O)NCc3ccc(F)c(C(F)(F)F)c3)c2Cl)cc1 [I-1272]
43 | 4.23[a] | COc1ccc(CNc2nsc(C(=O)NC(C)c3ccc(Br)cc3)c2Cl)cc1 (stereo not shown) [I-1273]
44 | 2.94[a] | COc1ccc(CNc2nsc(C(=O)NCc3cccc(C(C)C)n3)c2Cl)cc1 [I-1274]
45 | 4.32[a] | COc1ccc(CNc2nsc(C(=O)NC(C)c3cccc4ccccc34)c2Cl)cc1 (stereo not shown) [I-1275]
46 | 4.23[a] | COc1ccc(CNc2nsc(C(=O)NC(C)c3ccc(C(F)(F)F)cc3)c2Cl)cc1 (stereo not shown) [I-1276]

Row | LogP | SMILES
47 | 3.75[a] | COc1ccc(CN(C(=O)OC(C)(C)C)c2nsc(C(=O)N(C)OC)c2Cl)cc1 [I-1286]
48 | 1.43[a] | N#Cc1ccccc1CNC(=O)c1snc(N)c1Cl [I-1288]
49 | 1.41[a] | N#Cc1cccc(CNC(=O)c2snc(N)c2Cl)c1 [I-1289]
50 | 2.50[a] | Nc1nsc(C(=O)NCC2CCCCC2Cl)c1I (stereo not shown) [I-1293]
51 | 2.07[a] | Nc1nsc(C(=O)NCC2CCCCC2(F)F)c1Cl (stereo not shown) [I-1294]
52 | 1.69[a] | Nc1nsc(C(=O)NCC2CC=C(F)CC2)c1F (stereo not shown) [I-1296]
53 | 1.66[a] | Nc1nsc(C(=O)NCC2CCC(F)(F)CC2)c1F [I-1297]
54 | 1.97[a] | Nc1nsc(C(=O)NCC2CCCCC2F)c1Cl (stereo not shown) [I-1306]
55 | 2.03[a] | CCOC(=O)c1cccc(CNC(=O)c2snc(N)c2Cl)c1 [I-1307]
56 | 5.41[a] | COc1ccc(CNc2nsc(C(=O)NC3CCc4ccc(C(C)(C)C)cc4C3)c2Cl)cc1 (stereo not shown) [I-1308]
57 | 2.98[a] | COc1ccc(CNc2nsc(C(=O)NCc3cnc(Cl)cn3)c2Cl)cc1 [I-1309]
58 | 1.67[a] | COc1ccc(CNc2nsc(C(=O)NC3CCCc4ccncc43)c2Cl)cc1 (stereo not shown) [I-1310]
59 | 5.46[a] | COc1ccc(CNc2nsc(C(=O)NC3CCCc4cc(C(C)(C)C)ccc43)c2Cl)cc1 (stereo not shown) [I-1311]
60 | 3.09[a] | CCn1ncc(CNC(=O)c2snc(NCc3ccc(OC)cc3)c2Cl)c1C(F)F [I-1312]
61 | 4.46[a] | COc1ccc(CNc2nsc(C(=O)NCc3cc(C(F)(F)F)cc(C(F)(F)F)c3)c2Cl)cc1 [I-1313]
62 | 1.52[a] | COc1ccc(CNc2nsc(C(=O)NCc3ccncc3C)c2Cl)cc1 [I-1314]
63 | 2.58[a] | COc1ccc(CNc2nsc(C(=O)NCc3cnn(CC(F)F)c3)c2Cl)cc1 [I-1315]
64 | 2.56[a] | COc1ccc(CNc2nsc(C(=O)NCc3ccnc(OC)n3)c2Cl)cc1 [I-1316]
65 | 2.82[a] | COc1ccc(CNc2nsc(C(=O)NC(C)c3nccs3)c2Cl)cc1 (stereo not shown) [I-1317]
66 | 2.45[a] | COc1ccc(CNc2nsc(C(=O)NCc3ccc(OC)cn3)c2Cl)cc1 [I-1318]
67 | 3.41[a] | COc1ccc(CNc2nsc(C(=O)NCc3cccc(OC)n3)c2Cl)cc1 [I-1319]
68 | 3.39[a] | COc1ccc(CNc2nsc(C(=O)NCc3ccc(C)n3C)c2Cl)cc1 [I-1320]
69 | 3.85[a] | COc1ccc(CNc2nsc(C(=O)NCc3ccc(OC)c(C(F)(F)F)c3)c2Cl)cc1 [I-1321]

Row | LogP | SMILES
70 | 4.40[a] | COc1ccc(CNc2nsc(C(=O)NC3(c4ccccc4Br)CC3)c2Cl)cc1 [I-1322]
71 | 2.39[a] | COc1ccc(CNc2nsc(C(=O)NCc3cncs3)c2Cl)cc1 [I-1323]
72 | 1.82[a] | COc1ccc(CNc2nsc(C(=O)NC(Cn3ccnc3)C(C)(C)C)c2Cl)cc1 (stereo not shown) [I-1324]
73 | 4.74[a] | COc1ccc(CNc2nsc(C(=O)NC3CC(C)(C)Cc4oc(C)cc43)c2Cl)cc1 (stereo not shown) [I-1325]
74 | 3.61[a] | COc1ccc(CNc2nsc(C(=O)NC(C#N)c3ccc(F)c(F)c3)c2Cl)cc1 (stereo not shown) [I-1326]
75 | 4.24[a] | COc1ccc(CNc2nsc(C(=O)NC3(c4ccccc4Cl)CC3)c2Cl)cc1 [I-1327]
76 | 3.41[a] | COc1ccc(CNc2nsc(C(=O)NCc3cc(OC)cc(OC)c3)c2Cl)cc1 [I-1328]
77 | 3.04[a] | COc1ccc(CNc2nsc(C(=O)NC(C)(C)c3ccon3)c2Cl)cc1 [I-1329]
78 | 1.49[a] | COc1ccc(CNc2nsc(C(=O)NCc3cnccc3OC)c2Cl)cc1 [I-1330]
79 | 5.22[a] | COc1ccc(CNc2nsc(C(=O)NC3CCc4cc(C(C)(C)C)ccc43)c2Cl)cc1 (stereo not shown) [I-1331]
80 | 3.46[a] | COc1ccc(CNc2nsc(C(=O)NC(C)c3nc(C(C)C)no3)c2Cl)cc1 (stereo not shown) [I-1332]
81 | 2.82[a] | CCc1c(CNC(=O)c2snc(NCc3ccc(OC)cc3)c2Cl)cnn1CC [I-1333]
82 | 4.40[a] | COc1ccc(CNc2nsc(C(=O)NC3CCCCc4ccccc43)c2Cl)cc1 (stereo not shown) [I-1334]
83 | 4.05[a] | COc1ccc(CNc2nsc(C(=O)NC(C#N)c3cccc(Cl)c3Cl)c2Cl)cc1 (stereo not shown) [I-1335]
84 | 2.80[a] | COc1ccc(CNc2nsc(C(=O)NC3CCOCC3C)c2Cl)cc1 (stereo not shown) [I-1336]
85 | 2.56[a] | COc1ccc(CNc2nsc(C(=O)NC(C)C3=NOCC3)c2Cl)cc1 (stereo not shown) [I-1337]
86 | 2.73[a] | COc1ccc(CNc2nsc(C(=O)NC(C)c3ccno3)c2Cl)cc1 (stereo not shown) [I-1338]
87 | 3.23[a] | COc1ccc(CNc2nsc(C(=O)NCc3cn(C4CCCC4)nc3C)c2Cl)cc1 [I-1339]
88 | 4.37[a] | COc1ccc(CNc2nsc(C(=O)NCc3csc4ccc(Cl)cc34)c2Cl)cc1 [I-1340]
89 | 2.33[a] | COc1ccc(CNc2nsc(C(=O)NCc3cnn(C)c3C)c2Cl)cc1 [I-1341]
90 | 1.89[a] | COc1ccc(CNc2nsc(C(=O)NCc3cncc(OC)c3)c2Cl)cc1 [I-1342]
91 | 3.17[a] | COc1ccc(CNc2nsc(C(=O)NC(C)c3ccc(Cl)nc3)c2Cl)cc1 (stereo not shown) [I-1343]
